Measurements taken from patent publication EP1433789A1, “Pyrrolopyrazines and their use as selective apoptosis inducers” (Aponetics AG, priority 2002, dated 2004).

Tests used:
Type in all cases: cell-based, human
HeLa = assay: AnnexinV/7-AAD staining; settings: 10 µM, 24 h treatment
Summary of the method: (§1)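 Cells treated with compound at 10 µM final for 24 h, then stained with AnnexinV-GST/anti-GST Alexa 488 and 7-AAD and analysed by flow cytometry. Percent positive cells scored as 0 (<10%), 1 (10–50%) or 2 (>50%).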

Ramos [1] = assay: AnnexinV/7-AAD staining; settings: 10 µM, 24 h treatment
Summary of the method: as §1

Jurkat = assay: AnnexinV/7-AAD staining; settings: 10 µM, 24 h treatment
Summary of the method: as §1

Ramos [2] = assay: Hoechst 33342 nuclear staining (Table 3); set-up: key: 0 relating to no activity; 1 relating to weak activity comprising less than 50% of the cells; score 2 relating to strong activity comprising more than 50% of the cells
Summary of the method: (§2)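 Adherent cells (3-5×10^3, pre-spread 24 h) or suspension cells (8-10×10^3) treated with compounds at 10, 3, 1 and 0.3 µM for 24 or 48 h, then Hoechst 33342 stained for 30 min. Apoptotic nuclear morphology scored by fluorescence microscopy: 0 none, 1 weak (<50% cells), 2 strong (>50% cells).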

HT 1080 = assay: Hoechst 33342 nuclear staining (Table 3); set-up: key: 0 relating to no activity; 1 relating to weak activity comprising less than 50% of the cells; score 2 relating to strong activity comprising more than 50% of the cells
Summary of the method: as §2

HBL 100 = assay: Hoechst 33342 nuclear staining (Table 3); set-up: key: 0 relating to no activity; 1 relating to weak activity comprising less than 50% of the cells; score 2 relating to strong activity comprising more than 50% of the cells
Summary of the method: as §2

With CC1(C)Cc2ccccc2-c2c(Br)c3nc4ccccc4nc3n21 [No. 2, 13-Bromo-6,6-dimethyl-5,6-dihydro-6a,7,12-triaza-dibenzo[a,h]fluorene] the “percentage of positively stained cells (AnnexinV/7-AAD staining)” value (“percentage of positively stained cells” below) (HeLa) was 1 (score 1 relates to more than 10% but less than 50%), the “percentage of positively stained cells” value (Ramos [1]) was 2 (score 2 relates to more than 50% positivity) and the “percentage of positively stained cells” value (Jurkat) was 2 (score 2 relates to more than 50% positivity). The “Hoechst 33342 nuclear staining” value (Ramos [2]; 24h, conc 0.3 (µM)) was 0, the “Hoechst 33342 nuclear staining” value (Ramos [2]; 24h, conc 1 (µM)) was 0 and the “Hoechst 33342 nuclear staining” value (Ramos [2]; 24h, conc 3 (µM)) was 0. The “Hoechst 33342 nuclear staining” value (Ramos [2]; 24h, conc 10 (µM)) was 2 (score 2 relating to strong activity comprising more than 50% of the cells), the “Hoechst 33342 nuclear staining” value (Ramos [2]; 48h, conc 0.3 (µM)) was 2 (score 2 relating to strong activity comprising more than 50% of the cells) and the “Hoechst 33342 nuclear staining” value (Ramos [2]; 48h, conc 1 (µM)) was 2 (score 2 relating to strong activity comprising more than 50% of the cells). For the same compound, the “Hoechst 33342 nuclear staining” value (Ramos [2]; 48h, conc 3 (µM)) was 2 (score 2 relating to strong activity comprising more than 50% of the cells), the “Hoechst 33342 nuclear staining” value (Ramos [2]; 48h, conc 10 (µM)) was 2 (score 2 relating to strong activity comprising more than 50% of the cells) and the “Hoechst 33342 nuclear staining (fraction of apoptotic nuclei), score” value (HT 1080; HT 1080, 24h, 0.3 µM) was 0. The “Hoechst 33342 nuclear staining (fraction of apoptotic nuclei), score” value (HT 1080; HT 1080, 24h, 1 µM) was 0, the “Hoechst 33342 nuclear staining (fraction of apoptotic nuclei), score” value (HT 1080; HT 1080, 24h, 3 µM) was 0 and the “Hoechst 33342 nuclear staining (fraction of apoptotic nuclei), score” value (HT 1080; HT 1080, 24h, 10 µM) was 0. For the same compound, the “Hoechst 33342 nuclear staining (fraction of apoptotic nuclei), score” value (HT 1080; HT 1080, 48h, 0.3 µM) was 0, the “Hoechst 33342 nuclear staining (fraction of apoptotic nuclei), score” value (HT 1080; HT 1080, 48h, 1 µM) was 0 and the “Hoechst 33342 nuclear staining (fraction of apoptotic nuclei), score” value (HT 1080; HT 1080, 48h, 3 µM) was 0. The “Hoechst 33342 nuclear staining (fraction of apoptotic nuclei), score” value (HT 1080; HT 1080, 48h, 10 µM) was 1 (1 relating to weak activity comprising less than 50% of the cells), the “Hoechst 33342 nuclear staining (fraction of apoptotic nuclei), score” value (HBL 100; HBL 100, 24h, 0.3 µM) was 0 and the “Hoechst 33342 nuclear staining (fraction of apoptotic nuclei), score” value (HBL 100; HBL 100, 24h, 1 µM) was 0. The “Hoechst 33342 nuclear staining (fraction of apoptotic nuclei), score” value (HBL 100; HBL 100, 24h, 3 µM) was 0, the “Hoechst 33342 nuclear staining (fraction of apoptotic nuclei), score” value (HBL 100; HBL 100, 24h, 10 µM) was 0 and the “Hoechst 33342 nuclear staining (fraction of apoptotic nuclei), score” value (HBL 100; HBL 100, 48h, 0.3 µM) was 0. The “Hoechst 33342 nuclear staining (fraction of apoptotic nuclei), score” value (HBL 100; HBL 100, 48h, 1 µM) was 0, the “Hoechst 33342 nuclear staining (fraction of apoptotic nuclei), score” value (HBL 100; HBL 100, 48h, 3 µM) was 0 and the “Hoechst 33342 nuclear staining (fraction of apoptotic nuclei), score” value (HBL 100; HBL 100, 48h, 10 µM) was 2 (score 2 relating to strong activity comprising more than 50% of the cells).
